Structures can show the parent of a compound that is named as a salt.
Assay: Hygroscopicity by dynamic vapor sorption (DVS)
Type: physicochemical
Details: for water absorbed (DVS): 25° C. and 95% RH; for hygroscopicity (DVS analysis), in words: 25° C.
Protocol: Hygroscopicity was studied using dynamic vapor sorption (DVS, TA Q5000 SA, TA Instruments, New Castle, Del. or DVS, DVS Intrinsic, Surface Measurement Systems, London, UK). A sample (2-20 mg) was placed in an aluminum DVS pan and loaded on the sample side of the twin pan balance. The water sorption and desorption were studied as a function of relative humidity (RH) at 25° C. In 10% RH increments, the relative humidity was increased from 5% RH to 95% RH and then decreased back to 5%. […] Data analysis was performed using Universal Analysis 2000 Version 4.7A (TA Instruments, New Castle, Del.) for TA DVS runs and Microsoft Excel for SMS DVS runs.

[1] = for Mono-BSA Form I up to 85% RH

Compound	water absorbed (DVS)	hygroscopicity (DVS analysis), in words [1]	water uptake (DVS) (90% RH at 25° C.)	water uptake (DVS) (85% RH at 25° C.)	hygroscopicity (DVS analysis), in words (above 85% RH, led to deliquescence)
Nc1cncc(-c2cn3ccnc3c(Nc3ccc(N4CCN(C5COC5)CC4)cc3)n2)n1 [Compound I Form I, 6-(6-aminopyrazin-2-yl)-N-(4-(4-(oxetan-3-yl)piperazin-1-yl)phenyl)imidazo[1,2-a]pyrazin-8-amine]	about 0.8 wt. %	slightly hygroscopic			
Nc1cncc(-c2cn3ccnc3c(Nc3ccc(N4CCN(C5COC5)CC4)cc3)n2)n1 [Compound I Form II, 6-(6-aminopyrazin-2-yl)-N-(4-(4-(oxetan-3-yl)piperazin-1-yl)phenyl)imidazo[1,2-a]pyrazin-8-amine]	about 2 wt. %	slightly hygroscopic			
Nc1cncc(-c2cn3ccnc3c(Nc3ccc(N4CCN(C5COC5)CC4)cc3)n2)n1 [Compound I Form V, 6-(6-aminopyrazin-2-yl)-N-(4-(4-(oxetan-3-yl)piperazin-1-yl)phenyl)imidazo[1,2-a]pyrazin-8-amine]	about 0.5 wt. %	slightly hygroscopic			

Results, then the molecule that gave them:

water absorbed (DVS)	hygroscopicity (DVS analysis), in words [1]	water uptake (DVS) (90% RH at 25° C.)	water uptake (DVS) (85% RH at 25° C.)	hygroscopicity (DVS analysis), in words (above 85% RH, led to deliquescence)	Compound
	slightly hygroscopic	about 0.4 wt. %			Nc1cncc(-c2cn3ccnc3c(Nc3ccc(N4CCN(C5COC5)CC4)cc3)n2)n1 [Compound I Hemi-Succinate Form I, 6-(6-aminopyrazin-2-yl)-N-(4-(4-(oxetan-3-yl)piperazin-1-yl)phenyl)imidazo[1,2-a]pyrazin-8-amine]
> 15 wt. %	slightly hygroscopic		about 1.5 wt. %	very hygroscopic	Nc1cncc(-c2cn3ccnc3c(Nc3ccc(N4CCN(C5COC5)CC4)cc3)n2)n1 [Compound I Mono-BSA Form I, 6-(6-aminopyrazin-2-yl)-N-(4-(4-(oxetan-3-yl)piperazin-1-yl)phenyl)imidazo[1,2-a]pyrazin-8-amine]
	very hygroscopic	about 16 wt. %			Nc1cncc(-c2cn3ccnc3c(Nc3ccc(N4CCN(C5COC5)CC4)cc3)n2)n1 [Compound I Mono-HCl salt Form II, 6-(6-aminopyrazin-2-yl)-N-(4-(4-(oxetan-3-yl)piperazin-1-yl)phenyl)imidazo[1,2-a]pyrazin-8-amine]
	moderately hygroscopic	about 2.1 wt. %			Nc1cncc(-c2cn3ccnc3c(Nc3ccc(N4CCN(C5COC5)CC4)cc3)n2)n1 [Compound I Sesqui-Adipate Form I, 6-(6-aminopyrazin-2-yl)-N-(4-(4-(oxetan-3-yl)piperazin-1-yl)phenyl)imidazo[1,2-a]pyrazin-8-amine]

From US11339168B2, “Crystalline forms of 6-(6-aminopyrazin-2-yl)-N-(4-(4-(oxetan-3-yl)piperazin-1-yl)phenyl)imidazo[1,2-a]pyrazin-8-amine as Syk inhibitors” (Kronos Bio, Inc., priority 2019, dated 2022)
